This note sets out measurements from ChEMBL document CHEMBL1140399, “Synthesis and evaluation of 3-anilino-quinoxalinones as glycogen phosphorylase inhibitors” (Bioorg Med Chem Lett, 2005).

In assay [1] the test system is Mus musculus. The experiment in a line: Blood glucose levels in mice was measured using glucometer after 8 hours of compound administration at 30 mg/kg body weight via oral gavage.
Assay [2] has as its system Mus musculus. The experiment in a line: Blood glucose levels in mice was measured using glucometer after 1 hours of compound administration at 30 mg/kg body weight via oral gavage.
Assay [3] relates to Mus musculus. The experiment in a line: Blood glucose levels in mice was measured using glucometer after 4 hours of compound administration at 30 mg/kg body weight via oral gavage.
Assay [4] deals with Mus musculus. In words: Blood glucose levels in mice was measured using glucometer after 0 hours of compound administration at 30 mg/kg body weight via oral gavage.
In assay [5] the test system is Mus musculus. In words: Blood glucose levels in mice was measured using glucometer after 2 hours of compound administration at 30 mg/kg body weight via oral gavage.

With `CCn1c(=O)c(Nc2ccc(C(=O)NCc3cccs3)cc2)nc2ccccc21`, the Blood glucose level in the assay on Mus musculus [1] turned out to be 325.9; in the assay with Mus musculus [2], 349.1; in the assay on Mus musculus [3], 383.3; in the assay on Mus musculus [4], 320.3; in the assay with Mus musculus [5], 338.4.

Take `Cn1c(=O)c(Nc2ccc(C(=O)NCc3cccs3)cc2)nc2cccnc21`: the Blood glucose level with Mus musculus [1] was 328.4; in the assay with Mus musculus [2], 305.4; with Mus musculus [3], 362.5; in the assay on Mus musculus [4] it was 357.4; in the assay on Mus musculus [5] it was 356.

As for `Cn1c(=O)c(Nc2ccc(C(=O)NCc3cccs3)cc2)nc2ccccc21`, the Blood glucose level with Mus musculus [1] is recorded as 224.9; with Mus musculus [2], 306.4; in the assay with Mus musculus [3] it was 313.3; with Mus musculus [4], 334; in the assay with Mus musculus [5], 351.3.
